Experimental data reported in patent US20240158348A1, “HERBICIDAL CYCLIC AMIDES N-SUBSTITUTED WITH A HALOALKYLSULFONYLANILIDE GROUP” (FMC Corporation, priority 2021, published 2024).

Legend:
Type in all cases: in vivo
kochia (Bassia scoparia) [1] = assay: Test C preemergence, kochia; conditions: 0 is no effect, 100 is complete control
Description: (§1) Seeds of plant species selected from blackgrass (Alopecurus myosuroides), corn (Zea mays), foxtail, giant (giant foxtail, Setaria faberi), goosegrass (Eleusine indica), kochia (Bassia scoparia), oat, wild (wild oat, Avena fatua), pigweed, palmer (palmer amaranth, Amaranthus palmeri), ragweed (common ragweed, Ambrosia artemisiifolia), ryegrass, Italian (Italian ryegrass, Lolium multiflorum), soybean (Glycine max) and wheat (Triticum aestivum) were planted into a blend of loam soil and sand and treated preemergence with a directed soil spray using test chemicals formulated in a non-phytotoxic solvent mixture which included a surfactant.
(§2) At the same time, plants selected from these crop and weed species and also galium (catchweed bedstraw, Galium aparine) and horseweed (Erigeron canadensis) were planted in pots containing the same blend of loam soil and sand and treated with postemergence applications of test chemicals formulated in the same manner. Plants ranged in height from 2 to 10 cm and were in the one- to two-leaf stage for the postemergence treatment. Treated plants and untreated controls were maintained in a greenhouse for 10 or 12 days, after which time all treated plants were compared to untreated controls and visually evaluated for injury. Plant response ratings, summarized in Table A, are based on a 0 to 100 scale where 0 is no effect and 100 is complete control. A dash (-) response means no test result.

[2] = tested on: foxtail, giant (giant foxtail, Setaria faberi); assay: Test C preemergence, giant foxtail; conditions: 0 is no effect, 100 is complete control
Description: as §1, §2

[3] = tested on: ryegrass, Italian (Italian ryegrass, Lolium multiflorum); assay: Test C preemergence, Italian ryegrass; conditions: 0 is no effect, 100 is complete control
Description: as §1, §2

[4] = tested on: blackgrass (Alopecurus myosuroides); assay: Test C preemergence, blackgrass; conditions: 0 is no effect, 100 is complete control
Description: as §1, §2

[5] = tested on: ducksalad (Heteranthera limosa); assay: Test D flooded paddy test, ducksalad; parameters: key: 0 = no effect, 100 = complete control; conditions: 250 g ai/ha, Flood; applied to paddy water at 2-leaf stage; visual rating after 13 days; scale 0 (no effect) to 100 (complete control)
Description: (§3) Plant species in the flooded paddy test selected from barnyardgrass (Echinochloa crusgalli), ducksalad (Heteranthera limosa), rice (Oryza sativa), and sedge, umbrella (small-flower umbrella sedge, Cyperus difformis) were grown to the 2-leaf stage for testing. At time of treatment, test pots were flooded to 3 cm above the soil surface, treated by application of test compounds directly to the paddy water, and then maintained at that water depth for the duration of the test. Treated plants and controls were maintained in a greenhouse for 13 days, after which time all species were compared to controls and visually evaluated. Plant response ratings, summarized in Table B, are based on a scale of 0 to 100 where 0 is no effect and 100 is complete control. A dash (-) response means no test result.

[6] = tested on: oat, wild (wild oat, Avena fatua); assay: Test C postemergence, wild oat
Description: as §1, §2

[7] = tested on: wheat (Triticum aestivum); assay: Test C preemergence, wheat; conditions: 0 is no effect, 100 is complete control
Description: as §1, §2

corn (Zea mays) [8] = assay: Test C postemergence, corn
Description: as §1, §2

[9] = tested on: pigweed, palmer (palmer amaranth, Amaranthus palmeri); assay: Test C preemergence, palmer amaranth; conditions: 0 is no effect, 100 is complete control
Description: as §1, §2

[10] = tested on: ryegrass, Italian (Italian ryegrass, Lolium multiflorum); assay: Test C postemergence, Italian ryegrass
Description: as §1, §2

kochia (Bassia scoparia) [11] = assay: Test C postemergence, kochia
Description: as §1, §2

[12] = tested on: blackgrass (Alopecurus myosuroides); assay: Test C postemergence, blackgrass; conditions: 125 g ai/ha Postemergence; 0 is no effect, 100 is complete control
[13] = tested on: goosegrass (Eleusine indica); assay: Test C postemergence, goosegrass
Description: as §1, §2

[14] = tested on: goosegrass (Eleusine indica); assay: Test C preemergence, goosegrass; conditions: 0 is no effect, 100 is complete control
Description: as §1, §2

[15] = tested on: sedge, umbrella (small-flower umbrella sedge, Cyperus difformis); assay: Test D flooded paddy test, umbrella sedge; parameters: key: 0 = no effect, 100 = complete control; conditions: 250 g ai/ha, Flood; applied to paddy water at 2-leaf stage; visual rating after 13 days; scale 0 (no effect) to 100 (complete control)
Description: as §3

soybean (Glycine max) [16] = assay: Test C postemergence, soybean
Description: as §1, §2

[17] = tested on: ragweed (common ragweed, Ambrosia artemisiifolia); assay: Test C preemergence, ragweed; conditions: 0 is no effect, 100 is complete control
Description: as §1, §2

[18] = tested on: galium (catchweed bedstraw, Galium aparine); assay: Test C postemergence, galium
Description: as §1, §2

[19] = tested on: oat, wild (wild oat, Avena fatua); assay: Test C preemergence, wild oat; conditions: 0 is no effect, 100 is complete control
Description: as §1, §2

[20] = tested on: pigweed, palmer (palmer amaranth, Amaranthus palmeri); assay: Test C postemergence, palmer amaranth
Description: as §1, §2

[21] = tested on: blackgrass (Alopecurus myosuroides); assay: Test C postemergence, blackgrass; conditions: 31 g ai/ha Postemergence; visual injury, 0 to 100 scale (0 no effect, 100 complete control)
Description: as §1, §2

[22] = tested on: wheat (Triticum aestivum); assay: Test C postemergence, wheat
Description: as §1, §2

[23] = tested on: horseweed (Erigeron canadensis); assay: Test C postemergence, horseweed
Description: as §1, §2

[24] = tested on: foxtail, giant (giant foxtail, Setaria faberi); assay: Test C postemergence, giant foxtail
Description: as §1, §2

[25] = tested on: barnyardgrass (Echinochloa crusgalli); assay: Test D flooded paddy test, barnyardgrass; parameters: key: 0 = no effect, 100 = complete control; conditions: 250 g ai/ha, Flood; applied to paddy water at 2-leaf stage; visual rating after 13 days; scale 0 (no effect) to 100 (complete control)
Description: as §3

[26] = tested on: ragweed (common ragweed, Ambrosia artemisiifolia); assay: Test C postemergence, ragweed
Description: as §1, §2

rice (Oryza sativa) = assay: Test D flooded paddy test, rice; parameters: key: 0 = no effect, 100 = complete control; conditions: 250 g ai/ha, Flood; applied to paddy water at 2-leaf stage; visual rating after 13 days; scale 0 (no effect) to 100 (complete control)
Description: as §3

soybean (Glycine max) [27] = assay: Test C preemergence, soybean; conditions: 0 is no effect, 100 is complete control
Description: as §1, §2

corn (Zea mays) [28] = assay: Test C preemergence, corn; conditions: 0 is no effect, 100 is complete control
Description: as §1, §2

[29] = 31 g ai/ha Postemergence, visual injury, 0 to 100 scale (0 no effect, 100 complete control)
[30] = 125 g ai/ha Postemergence, 0 is no effect, 100 is complete control

CCCC(=O)OCN(c1cc(N2CCC(OC3CC3)C2=O)c(C)cc1C)S(=O)(=O)C(F)(F)F (stereo not shown) [Compound 20]
Plant response rating (0 to 100 scale), Kochia (kochia (Bassia scoparia) [1]; 31 g ai/ha Preemergence): 80 | Plant response rating (0 to 100 scale), Kochia (kochia (Bassia scoparia) [1]; 125 g ai/ha Preemergence): 100 | Plant response rating (0 to 100 scale), Foxtail, Giant ([2]; 31 g ai/ha Preemergence): 90 | Plant response rating (0 to 100 scale), Foxtail, Giant ([2]; 125 g ai/ha Preemergence): 100 | Plant response rating (0 to 100 scale), Ryegrass, Italian ([3]; 31 g ai/ha Preemergence): 100 | Plant response rating (0 to 100 scale), Ryegrass, Italian ([3]; 125 g ai/ha Preemergence): 100 | Plant response rating (0 to 100 scale), Blackgrass ([4]; 31 g ai/ha Preemergence): 80 | Plant response rating (0 to 100 scale), Blackgrass ([4]; 125 g ai/ha Preemergence): 100 | Plant response rating, Ducksalad [5]: 90 | Oat, Wild plant response rating [6, 29]: 30 | Plant response rating (0 to 100 scale), Oat, Wild [6, 30]: 80 | Plant response rating (0 to 100 scale), Wheat ([7]; 31 g ai/ha Preemergence): 70 | Plant response rating (0 to 100 scale), Wheat ([7]; 125 g ai/ha Preemergence): 100 | Corn plant response rating (corn (Zea mays) [8]; [29]): 90 | Plant response rating (0 to 100 scale), Corn (corn (Zea mays) [8]; [30]): 90 | Plant response rating (0 to 100 scale), Pigweed, Palmer ([9]; 31 g ai/ha Preemergence): 90 | Plant response rating (0 to 100 scale), Pigweed, Palmer ([9]; 125 g ai/ha Preemergence): 100 | Ryegrass, Italian plant response rating [10, 29]: 60 | Plant response rating (0 to 100 scale), Ryegrass, Italian [10, 30]: 100 | Kochia plant response rating (kochia (Bassia scoparia) [11]; [29]): 70 | Plant response rating (0 to 100 scale), Kochia (kochia (Bassia scoparia) [11]; [30]): 80 | Plant response rating (0 to 100 scale), Blackgrass [12]: 90 | Goosegrass plant response rating [13, 29]: 90 | Plant response rating (0 to 100 scale), Goosegrass [13, 30]: 90 | Plant response rating (0 to 100 scale), Goosegrass ([14]; 31 g ai/ha Preemergence): 100 | Plant response rating (0 to 100 scale), Goosegrass ([14]; 125 g ai/ha Preemergence): 100 | Plant response rating, Sedge, Umbrella [15]: 98 | Soybean plant response rating (soybean (Glycine max) [16]; [29]): 60 | Plant response rating (0 to 100 scale), Soybean (soybean (Glycine max) [16]; [30]): 70 | Plant response rating (0 to 100 scale), Ragweed ([17]; 31 g ai/ha Preemergence): 60 | Plant response rating (0 to 100 scale), Ragweed ([17]; 125 g ai/ha Preemergence): 90 | Galium plant response rating [18, 29]: 90 | Plant response rating (0 to 100 scale), Galium [18, 30]: 100 | Plant response rating (0 to 100 scale), Oat, Wild ([19]; 31 g ai/ha Preemergence): 60 | Plant response rating (0 to 100 scale), Oat, Wild ([19]; 125 g ai/ha Preemergence): 100 | Pigweed, Palmer plant response rating [20, 29]: 50 | Plant response rating (0 to 100 scale), Pigweed, Palmer [20, 30]: 80 | Blackgrass plant response rating [21]: 90 | Wheat plant response rating [22, 29]: 70 | Plant response rating (0 to 100 scale), Wheat [22, 30]: 70 | Horseweed plant response rating [23, 29]: 60 | Plant response rating (0 to 100 scale), Horseweed [23, 30]: 90 | Foxtail, Giant plant response rating [24, 29]: 80 | Plant response rating (0 to 100 scale), Foxtail, Giant [24, 30]: 90 | Plant response rating, Barnyardgrass [25]: 90 | Ragweed plant response rating [26, 29]: 80 | Plant response rating (0 to 100 scale), Ragweed [26, 30]: 90 | Plant response rating, Rice (rice (Oryza sativa)): 15 | Plant response rating (0 to 100 scale), Soybean (soybean (Glycine max) [27]; 31 g ai/ha Preemergence): 70 | Plant response rating (0 to 100 scale), Soybean (soybean (Glycine max) [27]; 125 g ai/ha Preemergence): 90 | Plant response rating (0 to 100 scale), Corn (corn (Zea mays) [28]; 31 g ai/ha Preemergence): 60 | Plant response rating (0 to 100 scale), Corn (corn (Zea mays) [28]; 125 g ai/ha Preemergence): 90
